Data: patent US7059206B1 (priority 1999, dated 2006)
Read-outs that look alike come from different tables or passages of the source.

Experiments:
[1] = Uptake by prototype passive sampler at constant exposure concentration over time; settings: polyethylene device
Method: In each experiment, the prototype device was tested fitted with both the polyethylene and the polysulphone membrane.
Accumulation of organic analytes by a passive sampling system fitted with a C18 Empore™ disk as receiving phase and either a […] pore size polysulphone membrane or a polyethylene membrane as a diffusion-limiting membrane material. Accumulation was measured following exposure of the system to an aqueous solution of analytes at constant concentration, stirring speed (140 rpm) and temperature (11° C.). Linear regressions of the accumulation factor, AF, (ml/device) on time were plotted and are given with the […] (R^2) in table 7. AF=mass of analytes in the tested compartment (ng/device)/mean concentration of the analyte in the aqueous phase during deployment (ng/ml).
The pattern of uptake in each case is linear with time over deployment periods ranging from several hours to 9 days. R^2 values in each case are above 0.9. Linear regressions plotted through the data points show the lag time between exposure of the device to an aqueous solution of each analyte and its uptake into the receiving phase of the passive sampling system. In effect this is a measurement of the response time of a particular prototype passive sampling system to a particular compound.

[2] = cited from earlier work
[3] = Cadmium uptake by passive sampler, effect of pH and of permselective membrane
Source text: Further evidence for the permselective function of the membrane during diffusion is illustrated by studying the effect of pH on metal uptake by the passive sampler, in this case Cd. […] Cadmium was initially added to a carefully-controlled water system in the laboratory into which the sampler was placed. Samples of water were taken over a period of 10 days.
Further evidence of the interaction of metal with the permselective membrane is that uptake to a naked disk is much more rapid. The uptake rate constant (k) for Cd is 1.6×10^9 min^−1 for the naked disk and 0.21×10^9 min^−1 for the permselective membrane.

Clc1ccc(Cl)c(-c2cc(Cl)ccc2Cl)c1 [PCB 52]
lag phase between exposure and uptake into the C18 receiving phase [1]: only a small lag phase
Solubility in water ([2]; temperature not given): 0.03 mgl^−1

CN(C)C(=O)Nc1ccc(Cl)c(Cl)c1 [Diuron]
Solubility in water ([2]; at 25° C.): 42 mgl^−1

[Cd] [Cadmium]
uptake rate constant (k) ([3]; naked disk): 1.6e+09 min⁻¹
uptake rate constant (k) ([3]; permselective membrane (Nafion-coated cellulose acetate)): 2.1e+08 min⁻¹

c1ccc2c(c1)ccc1ccccc12 [Phenanthrene]
lag phase between exposure and uptake into the C18 receiving phase [1]: only a small lag phase

ClC1=C(Cl)[C@]2(Cl)[C@@H]3[C@@H]4C[C@@H]([C@H]5O[C@@H]45)[C@@H]3[C@@]1(Cl)C2(Cl)Cl [Dieldrin]
lag phase between exposure and uptake into the C18 receiving phase [1]: a more significant lag phase
Solubility in water ([2]; at 25° C.): 0.186 mgl^−1

Clc1cc(Cl)c(-c2cc(Cl)c(Cl)cc2Cl)cc1Cl [PCB 153]
lag phase between exposure and uptake into the C18 receiving phase [1]: a more significant lag phase
Solubility in water ([2]; temperature not given): 0.00105 mgl^−1
